Results as given in ChEMBL document CHEMBL5614417, “Discovery of AMPs from random peptides via deep learning-based model and biological activity validation” (Eur J Med Chem, 2024).
In brackets after ≈: the same amount, converted by molar mass. Activity calls are given as the source filed them. No cut-off for these calls is given here. Where a SMILES comes first, the peptide text is derived from it.

Key:
Staphylococcus aureus [1] = assay: Antibacterial activity against Staphylococcus aureus ATCC 25923 incubated for 18 hrs by visual inspection method; type: functional
[2] = test system: Staphylococcus epidermidis; assay: Antibacterial activity against Staphylococcus epidermidis ATCC 12228 incubated for 18 hrs by visual inspection method; type: functional
Bacillus subtilis = assay: Antibacterial activity against Bacillus subtilis ATCC 23857 incubated for 18 hrs by visual inspection method; type: functional
Escherichia coli [3] = assay: Antibacterial activity against Escherichia coli ATCC 25922 incubated for 18 hrs by visual inspection method; type: functional
Acinetobacter baumannii [4] = assay: Antibacterial activity against Acinetobacter baumannii ATCC 19606 incubated for 18 hrs by visual inspection method; type: functional
Klebsiella pneumoniae = assay: Antibacterial activity against Klebsiella pneumoniae ATCC 700603 incubated for 18 hrs by visual inspection method; type: functional
Staphylococcus aureus [5] = assay: Antibacterial activity against methicillin resistant Staphylococcus aureus 1 incubated for 18 hrs by visual inspection method; type: functional
Staphylococcus aureus [6] = assay: Antibacterial activity against methicillin resistant Staphylococcus aureus 2 incubated for 18 hrs by visual inspection method; type: functional
Staphylococcus aureus [7] = assay: Antibacterial activity against methicillin resistant Staphylococcus aureus 3 incubated for 18 hrs by visual inspection method; type: functional
Staphylococcus aureus [8] = assay: Antibacterial activity against methicillin resistant Staphylococcus aureus 4 incubated for 18 hrs by visual inspection method; type: functional
Escherichia coli [9] = assay: Antibacterial activity against ESBL Escherichia coli 1 incubated for 18 hrs by visual inspection method; type: functional
Escherichia coli [10] = assay: Antibacterial activity against ESBL Escherichia coli 2 incubated for 18 hrs by visual inspection method; type: functional
Escherichia coli [11] = assay: Antibacterial activity against ESBL Escherichia coli 3 incubated for 18 hrs by visual inspection method; type: functional
Acinetobacter baumannii [12] = assay: Antibacterial activity against multidrug resistant Acinetobacter baumannii 1 incubated for 18 hrs by visual inspection method; type: functional
Acinetobacter baumannii [13] = assay: Antibacterial activity against multidrug resistant Acinetobacter baumannii 2 incubated for 18 hrs by visual inspection method; type: functional
Acinetobacter baumannii [14] = assay: Antibacterial activity against multidrug resistant Acinetobacter baumannii 4 incubated for 18 hrs by visual inspection method; type: functional
Acinetobacter baumannii [15] = assay: Antibacterial activity against multidrug resistant Acinetobacter baumannii 5 incubated for 18 hrs by visual inspection method; type: functional
Erythrocyte [16] = assay: Hemolytic activity in rat erythrocytes incubated for 1 hr; type: toxicity, cell-based
Staphylococcus aureus [17] = assay: Antibacterial activity against Staphylococcus aureus ATCC 25923 incubated for 18 hrs in presence of 50 mM NaCl by visual inspection method; type: functional
Staphylococcus aureus [18] = assay: Antibacterial activity against Staphylococcus aureus ATCC 25923 incubated for 18 hrs in presence of 100 mM NaCl by visual inspection method; type: functional
Staphylococcus aureus [19] = assay: Antibacterial activity against Staphylococcus aureus ATCC 25923 incubated for 18 hrs in presence of 150 mM NaCl by visual inspection method; type: functional
Escherichia coli [20] = assay: Antibacterial activity against Escherichia coli ATCC 25922 incubated for 18 hrs in presence of 50 mM NaCl by visual inspection method; type: functional
Erythrocyte [21] = assay: Hemolytic activity in rat erythrocytes at 250 ug/ml incubated for 1 hr; type: toxicity, cell-based; details: dose 250 µg/ml
[22] = Stability in Sprague-Dawley rat serum assessed as retention rate at 62.5 ug/ml measured after 2 hrs by RP-HPLC method; type: ADME, cell-free; details: at 62.5 µg/mL, read-out: Stability
Cell membrane [23] = assay: Induction of cell membrane damage in Staphylococcus aureus assessed as decrease in red/green fluorescence ratio by DiOC2(3) fluorescent probe based assay; type: cell membranes
Cell membrane [24] = assay: Induction of cell membrane damage in Staphylococcus aureus assessed as decrease in red/green fluorescence ratio at 2 times MIC by DiOC2(3) fluorescent probe based assay; type: cell membranes
Cell membrane [25] = assay: Disruption of outer membrane integrity in Escherichia coli assessed as increase in fluorescence intensity by measuring NPN uptake at 1 to 4 times MIC by fluorescence based analysis; type: cell membranes; details: TDE = time-dependent effect
Cell membrane [26] = assay: Disruption of outer membrane integrity in Escherichia coli assessed as increase in fluorescence intensity by measuring NPN uptake measured every min for 15 mins by fluorescence based analysis; type: cell membranes
Cell membrane [27] = assay: Induction of inner membrane permeability in Escherichia coli ML-35 at 1 to 4 times MIC by ONPG dye based assay; type: cell membranes; details: TDE = time-dependent effect
Cell membrane [28] = assay: Induction of inner membrane permeability in Escherichia coli ML-35 measured every 5 mins for 90 mins by ONPG dye based assay; type: cell membranes
Cell membrane [29] = assay: Induction of cell membrane damage in Staphylococcus aureus at 4 times MIC incubated for 30 mins by PI staining based confocal laser scanning microscopic analysis; type: cell membranes
Cell membrane [30] = assay: Induction of cell membrane damage in Staphylococcus aureus assessed as change in morphology by measuring roughened membrane at 4 times MIC incubated for 5 hrs by SEM analysis; type: cell membranes
Cell membrane [31] = assay: Induction of cell membrane damage in Staphylococcus aureus assessed as change in morphology by measuring numerous blebs covered membrane at 4 times MIC incubated for 5 hrs by SEM analysis; type: cell membranes
Cell membrane [32] = assay: Induction of cell membrane damage in Escherichia coli assessed as change in morphology by measuring roughened membrane at 4 times MIC incubated for 5 hrs by SEM analysis; type: cell membranes
Cell membrane [33] = assay: Induction of cell membrane damage in Escherichia coli assessed as change in morphology by measuring deformed membrane at 4 times MIC incubated for 5 hrs by SEM analysis; type: cell membranes
Cell membrane [34] = assay: Induction of cell membrane damage in Escherichia coli assessed as change in morphology by measuring numerous blebs covered membrane at 4 times MIC incubated for 5 hrs by SEM analysis; type: cell membranes
Escherichia coli [35] = assay: Bactericidal activity against Escherichia coli at 4 times MIC measured after 2 hrs by time kill kinetic assay; type: functional
Staphylococcus aureus [36] = assay: Bactericidal activity against Staphylococcus aureus at 2 times MIC measured after 6 hrs by time kill kinetic assay; type: functional, organism-based
Escherichia coli [37] = assay: Bactericidal activity against Escherichia coli at 2 times MIC measured after 3 hrs by time kill kinetic assay; type: functional, organism-based
Staphylococcus aureus [38] = assay: Induction of resistance development against Staphylococcus aureus assessed as fold increase in MIC after 21 passages; type: functional
Staphylococcus aureus [39] = assay: Inhibition of biofilm formation in Staphylococcus aureus at 16 times MIC incubated for 24 hrs by crystal violet staining based assay; type: functional
Staphylococcus aureus [40] = assay: Inhibition of biofilm formation in Staphylococcus aureus at MIC incubated for 24 hrs by crystal violet staining based assay; type: functional
Staphylococcus aureus [41] = assay: Inhibition of biofilm formation in Staphylococcus aureus at 2 times MIC incubated for 24 hrs by crystal violet staining based assay; type: functional
[42] = Toxicity in BALB/c mouse assessed as heart damage at 400 mg/kg, ip measured after 48 hrs by H and E staining based assay; type: organism-based; details: in vivo
[43] = Toxicity in BALB/c mouse assessed as spleen damage at 400 mg/kg, ip measured after 48 hrs by H and E staining based assay; type: organism-based; details: in vivo
[44] = Toxicity in BALB/c mouse assessed as lung damage at 400 mg/kg, ip measured after 48 hrs by H and E staining based assay; type: organism-based; details: in vivo
[45] = Toxicity in BALB/c mouse assessed as kidney damage at 400 mg/kg, ip measured after 48 hrs by H and E staining based assay; type: organism-based; details: in vivo
[46] = Toxicity in BALB/c mouse assessed as edema in hepatocytes at 200 to 400 mg/kg, ip measured after 48 hrs by H and E staining based assay; type: organism-based; details: in vivo, dose 200-400 mg/kg

Work on `CC[C@H](C)[C@H](NC(=O)[C@H](Cc1ccccc1)NC(=O)[C@@H](N)Cc1c[nH]c2ccccc12)C(=O)N[C@H](C(=O)N[C@@H](Cc1c[nH]c2ccccc12)C(=O)N[C@@H](Cc1c[nH]cn1)C(=O)N[C@@H](Cc1c[nH]c2ccccc12)C(=O)N[C@@H](CCCNC(=N)N)C(=O)N[C@@H](CCCCN)C(=O)N[C@H](C(=O)N1CCC[C@H]1C(=O)N1CCC[C@H]1C(=O)N[C@@H](CCCCN)C(N)=O)[C@@H](C)CC)[C@@H](C)CC` (H-WFIIWHWRKIPPK-NH2) yielded an MIC (Staphylococcus aureus [1]) of 7.5 µg/mL (≈ 4.15 µM), an MIC [2] of 3.75 µg/mL (≈ 2.08 µM) and an MIC (Bacillus subtilis) of 3.75 µg/mL (≈ 2.08 µM). It also gave an MIC (Escherichia coli [3]) of 15 µg/mL (≈ 8.3 µM), an MIC (Acinetobacter baumannii [4]) of 7.5 µg/mL (≈ 4.15 µM) and an MIC (Klebsiella pneumoniae) of 30 µg/mL (≈ 16.6 µM). For the same compound, the MIC (Staphylococcus aureus [5]) was 7.5 µg/mL (≈ 4.15 µM), the MIC (Staphylococcus aureus [6]) was 7.5 µg/mL (≈ 4.15 µM) and the MIC (Staphylococcus aureus [7]) was 7.5 µg/mL (≈ 4.15 µM). The MIC (Staphylococcus aureus [8]) was 7.5 µg/mL (≈ 4.15 µM), the MIC (Escherichia coli [9]) was 15 µg/mL (≈ 8.3 µM) and the MIC (Escherichia coli [10]) was 15 µg/mL (≈ 8.3 µM). For the same compound, the MIC (Escherichia coli [11]) was 15 µg/mL (≈ 8.3 µM), the MIC (Acinetobacter baumannii [12]) was 7.5 µg/mL (≈ 4.15 µM) and the MIC (Acinetobacter baumannii [13]) was 7.5 µg/mL (≈ 4.15 µM). For the same compound, the MIC (Acinetobacter baumannii [14]) was 7.5 µg/mL (≈ 4.15 µM), the MIC (Acinetobacter baumannii [15]) was 7.5 µg/mL (≈ 4.15 µM) and the HC5 (Erythrocyte [16]) was 416.15 µg/mL. For the same compound, the MIC (Staphylococcus aureus [17]) was 7.5 µg/mL, the MIC (Staphylococcus aureus [18]) was 7.5 µg/mL and the MIC (Staphylococcus aureus [19]) was 7.5 µg/mL. For the same compound, the MIC (Escherichia coli [20]) was 15 µg/mL, the Activity (Erythrocyte [21]) was “Non-Toxic” and the remaining at 2 h, 62.5 ug/ml [22] was 41.2%. The Activity (Cell membrane [23]) was “Dose-Dependent Effect”, the Activity (Cell membrane [24]) was “Active” and the Activity (Cell membrane [25]) was “Tde”. For the same compound, the Activity (Cell membrane [26]) was “Dose-Dependent Effect”, the Activity (Cell membrane [27]) was “Tde” and the Activity (Cell membrane [28]) was “Dose-Dependent Effect”. For the same compound, the Activity (Cell membrane [29]) was “Active”, the Activity (Cell membrane [30]) was “Active” and the Activity (Cell membrane [31]) was “Active”. For the same compound, the Activity (Cell membrane [32]) was “Active”, the Activity (Cell membrane [33]) was “Active” and the Activity (Cell membrane [34]) was “Active”. For the same compound, the Activity (Escherichia coli [35]) was 100%, the Activity (Staphylococcus aureus [36]) was “Active” and the Activity (Escherichia coli [37]) was “Active”. For the same compound, the fold change (FC) (Staphylococcus aureus [38]) was 2, the “inhibition (INH)” value (Staphylococcus aureus [39]) was over 90% and the “inhibition (INH)” value (Staphylococcus aureus [40]) was 12.29%. For the same compound, the “inhibition (INH)” value (Staphylococcus aureus [41]) was 20.76%, the Activity [42] was “Non-Toxic” and the Activity [43] was “Non-Toxic”. The Activity [44] was “Non-Toxic”, the Activity [45] was “Non-Toxic” and the Activity [46] was “Toxic”.
